PubChem BioAssay (NCI)
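Exposure lasted 48 hours, with cells grown in 96-well plates and compounds tested at five concentrations. At the TGI there is no net growth.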

Legend:
Assay in all cases: inhibition of tumour cell growth, NCI panel, 48 h
NCI-H23 lung = test system: NCI-H23 lung
SK-MEL-28 melanoma = test system: SK-MEL-28 melanoma
SF-295 CNS = test system: SF-295 CNS
A498 renal = test system: A498 renal
HOP-92 NSCLC = test system: HOP-92 NSCLC
HL-60(TB) leukemia = test system: HL-60(TB) leukemia
SW-620 colon = test system: SW-620 colon
HCT-15 colon = test system: HCT-15 colon
RXF 393 renal = test system: RXF 393 renal
MDA-N = test system: MDA-N

Measured: TGI

c1ccc(COC[C@H]2C3OCC([C@H](OCc4ccccc4)[C@H]3OCc3ccccc3)N2Cc2ccccc2)cc1 (stereo not given in full)
> 53.4 µM: HL-60(TB) leukemia
> 100 µM: all other assays above

COC1C(=O)N(SC)C1c1ccccc1Cl (stereo not given)
45.1 µM: HCT-15 colon
45.6 µM: SW-620 colon
42.2 µM: HL-60(TB) leukemia
> 100 µM: all other assays above

COC(=O)[C@H](C)N(C)C(=O)[C@H](C)N1[C@@H](c2ccccc2)COC1(C)C
> 100 µM: all assays above

COc1ccc(NC(=O)NNS(=O)(=O)c2ccc(C)cc2)cc1
> 100 µM: all assays above

CC1(C)CCC[C@@]2(C)C1CC[C@@]1(CO1)[C@@H]2/C=C\C(C=O)CC=O (stereo not given in full)
> 74.4 µM: HL-60(TB) leukemia
> 100 µM: all other assays above

CC1=NNC(=O)C1C1C=C(c2c[nH]c3ccccc23)OC1=O (stereo not given)
> 100 µM: all assays above

O=C(O)CCC(NC(=O)c1ccc(CNc2nc3cc(C(F)(F)F)ccc3nc2C(=O)O)cc1)C(=O)O (stereo not given)
> 100 µM: all assays above

N[C@H]1CCN(c2c(F)cc3c(=O)c(C(=O)O)cn4c3c2Oc2c-4ccc3c2ccc2ccccc23)C1
> 51.3 µM: HCT-15 colon
16.6 µM: RXF 393 renal
> 85.6 µM: HL-60(TB) leukemia
> 49.6 µM: HOP-92 NSCLC
> 53.6 µM: MDA-N
> 71.7 µM: NCI-H23 lung
> 100 µM: all other assays above

O=C(NCCN(CCNC(=O)c1cccc(=O)n1O)CCNC(=O)c1cccc(=O)n1O)c1cccc(=O)n1O
> 100 µM: all assays above

COc1cc(C(=O)OC2CC34CCNC35CC(OC5(OC)C2O)c2cc3c(cc24)OCO3)ccc1O (stereo not given)
> 100 µM: all assays above
